Experimental data as given in paper PMC10675340, “Preparation, Radiolabeling with ^68Ga/^177Lu and Preclinical Evaluation of Novel Angiotensin Peptide Analog: A New Class of Peptides for Breast Cancer Targeting” (Pharmaceuticals, 2023).
Like-named read-outs stand apart in the source and are kept apart here. Where a SMILES comes first, the peptide text is derived from it. [ ]: non-standard residue; d: D form. The star is where a group is joined. DOTA = O=C(O)CN1CCN(CC(=O)O)CCN(CC(=O)*)CCN(CC(=O)O)CC1; βAla = NCCC(=O)O

Legend:
AT1 receptor = assay: In vivo receptor-blocking study in nude mice bearing MDA-MB-231 xenografts; conditions: mouse, total radioactivity, 2 h p.i., co-injected ~100 µg unlabeled AngII peptide analog, mean ± SD
Procedure: (§1) To validate the selectivity of the AngII peptide analog for its intended target AT1 receptors, we performed a receptor-blocking assay by administering a blocking dose of ~100 μg of unlabeled AngII peptide premixed with the radiolabeled AngII peptide analog at 2 h p.i. […] Furthermore, a varying influence pattern of the pharmacological receptor blocking dose was detected mainly in the intestines, heart, and kidneys as the uptake in these organs was reduced to variable degrees depending on the degree of AT1 receptor expression by these organs and tissues (Table 2).
(§2) For the receptor-blocking study, an additional group of mice was injected with the radiolabeled AngII peptide premixed with unlabeled AngII peptide (~100 μg) to serve as a receptor-blocking agent. In vivo, biodistribution and blocking studies were performed at 2 h p.i. as stated before.

[1] = as above; conditions: mouse, total radioactivity, nude mice with MDA-MB-231 xenografts, 2 h p.i., co-injected ~100 µg unlabeled AngII peptide analog, mean ± SD
Procedure: as §1, §2

[2] = system: MDA-MB-231 tumor xenografts; assay: In vivo tumor targeting and biodistribution in nude mice bearing MDA-MB-231 xenografts; set-up: species or system mouse
Procedure: (with 43% wash away from the tumors over 2 h). The amount of radioactivity found for the ^68Ga-labeled AngII peptide analog in the tumors was always more than the radioactivity detected in the blood and muscle. A general pattern of better tumor-to-blood and tumor-to-muscle uptake ratios was noticed over time for ^68Ga-labeled AngII peptide.
In vivo, tumor uptake was conducted as reported previously. In summary, ~5 million MDA-MB-231 cells in 200 µL sterile PBS were implanted subcutaneously into each nude mouse. Once tumor growth became sufficient (~50–500 mg), tumor uptake and organ biodistribution were carried out after injecting the radiolabeled AngII peptide. The percent of the injected dose per gram in the tumors was determined by using a custom-designed Quattro Pro X9 spreadsheet (Corel Corporation, Austin, TX, USA).

athymic nude mice = assay: In vivo metabolic stability (radio-HPLC of mouse urine); conditions: urine collected at 2 h p.i.
Procedure: Athymic nude mice were utilized for the metabolism study to determine the potential radio-metabolites in the urine. An aliquot of urine sample was collected by manual void at the time of sacrifice and analyzed by radio-HPLC. […] The results signified that most of the radioactivity (>80%) was still bound to the ^68Ga-AngII peptide analog (Figure 2). There were no major metabolites detected in the urine sample at 2 h p.i. A small hydrophilic metabolite peak was found at about 4 min for the urine sample. This finding confirms that the ^68Ga-AngII peptide analog is not prone to fast in vivo disintegration and is also in agreement with the results of high in vitro complex strength.
To determine the radio-metabolites of the ^68Ga-labeled AngII peptide analog, an aliquot of urine sample was collected by manual void at the time of sacrifice and mixed with an equal volume of CH3CN. The mixture was centrifuged at 7000 rpm for 5 min. The resulting supernatant was collected and passed through a 0.20 μm Millex-LG filter unit to remove any precipitate or foreign particles and then analyzed by radio-HPLC.

Balb/c mice = assay: In vivo biodistribution in normal Balb/c mice; set-up: species or system mouse; conditions: normal Balb/c mice, 45 min and 2 h p.i.
Procedure: (§3) The in vivo biodistribution of ^68Ga-labeled AngII peptide analog was carried out in female Balb/c mice, at various time points, to observe the uptake in the normal tissues and organs and find the excretion route of the radiolabeled peptides. […] Low uptake and retention of the radiopeptide in the liver varying from 1.54 ± 0.28% ID/g at 45 min to 0.48 ± 0.17% ID/g at 2 h p.i. is probably related to the high hydrophilicity (log p = −0.55 ± 0.11) of the ^68Ga-labeled AngII peptide analog. […] The efficient clearance from the kidneys is possibly associated with the urinary excretion of the radiopeptide. […] The low amount of uptake in the bone (up to 0.37 ± 0.14% ID/g) (Table 2) indicates the minimal breakdown of the ^68Ga-labeled AngII peptide complex in vivo combined with the minor release of free ^68Ga. These findings are in agreement with the high in vitro metabolic stability observed in the human plasma for the radiolabeled AngII peptide. The accumulation in the extremely vascular organ lungs was also low (up to 1.11 ± 0.37% ID/g) signifying a low trapping by the lungs.
(§4) Approval from the Institutional Animal Care and Use Committee was obtained for the animal protocol used. Additionally, strict international regulations govern the safe and proper use of laboratory animals employed during animal experiments. In vivo, biodistribution was performed on healthy female mice according to the methods essentially described previously. In summary, Balb/c mice (n = 5 per time point, body mass 20–25 g) at 45 min and 2 h were administered with the HPLC-purified AngII peptide (~1 µg, 100 µL, 0.925–1.85 MBq; 25–50 µCi) via lateral tail vein injection. At the specified time points, the animals were sacrificed by cervical dislocation. A fraction of the blood was collected from cardiac puncture. Urine was also collected and measured with the bladder contents. Major organs, such as the lungs, pancreas, stomach, liver, heart, kidneys, and intestines were isolated, weighed, and measured for radioactivity. The uptake values of the radiolabeled peptide in different organs are expressed as the percent injected dose per gram (% ID/g) of tissue/organ. The radioactivity in the urine with bladder contents is shown as the percent of the injected dose per organ (% ID/organ). To calculate the injected dose, a standard (20-fold dilution of injected dose) was prepared and counted together with animal tissue samples.

[3] = In vivo biodistribution in normal Balb/c mice; set-up: species or system mouse; conditions: female, mouse, iv, total radioactivity, normal Balb/c mice, i.v. tail vein, mean ± SD, n = 4-6
Procedure: as §3, §4

CC[C@H](C)[C@H](NC(=O)[C@H](Cc1ccc(O)cc1)NC(=O)[C@@H](NC(=O)[C@H](CCCNC(=N)N)NC(=O)[C@H](CC(=O)O)NC(=O)CCNC(=O)[C@H](CCCCN)NC(=O)CN1CCN(CC(=O)O)CCN(CC(=O)O)CCN(CC(=O)O)CC1)C(C)C)C(=O)N[C@@H](Cc1c[nH]cn1)C(=O)N1CCC[C@H]1C(=O)N[C@@H](Cc1ccccc1)C(=O)N[C@@H](Cc1c[nH]c2ccccc12)C(=O)N[C@@H](CCCCN)C(=O)N[C@@H](Cc1ccc(O)cc1)C(N)=O [^68Ga-DOTA-AngII peptide, metal not drawn] ({DOTA}-K[βAla]DRVYIHPFWKY-NH2)
tissue uptake at 2 h (AT1 receptor; heart, intravenous, nude mice with MDA-MB-231 xenografts, read-out: Heart uptake, blocked): 0.23 ± 0.1 %ID/g
tissue uptake at 2 h (AT1 receptor; intestines without contents, nude mice with MDA-MB-231 xenografts, read-out: Intestines uptake (portion without contents), blocked): 0.8 ± 0.2 %ID/g
tissue uptake at 2 h (AT1 receptor; kidneys, intravenous, nude mice with MDA-MB-231 xenografts, read-out: Kidneys uptake, blocked): 2.01 ± 0.87 %ID/g
tissue uptake at 2 h (AT1 receptor; muscle/bone, nude mice with MDA-MB-231 xenografts, read-out: Muscle/bone uptake, blocked): 0.24 ± 0.1 %ID/g
tissue uptake at 2 h (AT1 receptor; tumor (MDA-MB-231 xenograft), MDA-MB-231 tumor in nude mice, read-out: Tumor uptake, blocked): 0.6 ± 0.27 %ID/g
dose excreted at 2 h (AT1 receptor; urine with bladder contents, intravenous, nude mice with MDA-MB-231 xenografts, read-out: Urine + Bladder (urinary excretion), blocked): 43.5 ± 7.9%
tissue uptake at 2 h ([1]; blood, intravenous, read-out: Blood uptake, blocked): 0.85 ± 0.2 %ID/g
tissue uptake at 2 h ([1]; liver, read-out: Liver uptake, blocked): 0.85 ± 0.24 %ID/g
tissue uptake at 2 h ([1]; lungs, intravenous, read-out: Lungs uptake, blocked): 0.89 ± 0.35 %ID/g
tissue uptake at 2 h ([1]; pancreas, read-out: Pancreas uptake, blocked): 0.54 ± 0.12 %ID/g
tissue uptake at 2 h ([1]; spleen, intravenous, read-out: Spleen uptake, blocked): 0.35 ± 0.09 %ID/g
tissue uptake at 2 h ([1]; stomach, read-out: Stomach uptake, blocked): 0.49 ± 0.18 %ID/g
Wash away from the tumors ([2]; MDA-MB-231 tumors in nude mice, over 2 h (45 min vs 2 h p.i.)): 43%
Clearance through the hepatobiliary system (liver + intestines) ([2]; tumor-bearing nude mice): below 7 % ID
Radioactivity still bound to the radiopeptide in urine (athymic nude mice): > 80%
Radioactivity in the whole intestines (with contents) (Balb/c mice): up to 2.97 % ID/g
tissue uptake at 0.75 h ([3]; blood, 45 min p.i., read-out: Blood uptake): 0.85 ± 0.24 %ID/g
tissue uptake at 2 h ([3]; blood, 2 h p.i., read-out: Blood uptake): 0.61 ± 0.15 %ID/g
tissue uptake at 0.75 h ([3]; heart, 45 min p.i., read-out: Heart uptake): 1.39 ± 0.51 %ID/g
tissue uptake at 2 h ([3]; heart, 2 h p.i., read-out: Heart uptake): 0.99 ± 0.26 %ID/g
tissue uptake at 0.75 h ([3]; intestines without contents, 45 min p.i., read-out: Intestines uptake (portion without contents)): 1.45 ± 0.39 %ID/g
tissue uptake at 2 h ([3]; intestines without contents, 2 h p.i., read-out: Intestines uptake (portion without contents)): 1 ± 0.28 %ID/g
tissue uptake at 0.75 h ([3]; kidneys, 45 min p.i., read-out: Kidneys uptake): 9.95 ± 3.39 %ID/g
tissue uptake at 2 h ([3]; kidneys, 2 h p.i., read-out: Kidneys uptake): 3.78 ± 1.46 %ID/g
tissue uptake at 0.75 h ([3]; liver, 45 min p.i., read-out: Liver uptake): 1.54 ± 0.28 %ID/g
tissue uptake at 2 h ([3]; liver, 2 h p.i., read-out: Liver uptake): 0.48 ± 0.17 %ID/g
tissue uptake at 0.75 h ([3]; lungs, 45 min p.i., read-out: Lungs uptake): 1.11 ± 0.37 %ID/g
tissue uptake at 2 h ([3]; lungs, 2 h p.i., read-out: Lungs uptake): 0.6 ± 0.2 %ID/g
tissue uptake at 2 h ([3]; muscle/bone, 2 h p.i., read-out: Muscle/bone uptake): 0.28 ± 0.1 %ID/g
tissue uptake at 0.75 h ([3]; pancreas, 45 min p.i., read-out: Pancreas uptake): 0.5 ± 0.11 %ID/g
tissue uptake at 2 h ([3]; pancreas, 2 h p.i., read-out: Pancreas uptake): 0.33 ± 0.06 %ID/g
tissue uptake at 0.75 h ([3]; spleen, 45 min p.i., read-out: Spleen uptake): 0.51 ± 0.1 %ID/g
tissue uptake at 2 h ([3]; spleen, 2 h p.i., read-out: Spleen uptake): 0.31 ± 0.09 %ID/g
tissue uptake at 0.75 h ([3]; stomach, 45 min p.i., read-out: Stomach uptake): 1.06 ± 0.41 %ID/g
tissue uptake at 2 h ([3]; stomach, 2 h p.i., read-out: Stomach uptake): 0.81 ± 0.23 %ID/g
dose excreted at 0.75 h ([3]; urine with bladder contents, 45 min p.i., read-out: Urine + Bladder (urinary excretion)): 67 ± 8.9%
dose excreted at 2 h ([3]; urine with bladder contents, 2 h p.i., read-out: Urine + Bladder (urinary excretion)): 80 ± 12.9%
